Results as given in publication PMC12514577, “Activity-based probes and chemical proteomics uncover the biological impact of targeting HMG-CoA Synthase 1 in the mevalonate pathway” (The Journal of Biological Chemistry, 2025).

How the values were obtained:
[1] = target: T1, 3-hydroxy-3-methylglutaryl-coenzyme A synthase 1 (HMGCS1) (Homo sapiens, UniProt Q01581); assay: Glu-C MS/MS of adduct on recombinant HMGCS1; dose-dependent competition with HG-FL in gel; competitive chemoproteomics in HEK293T; assay type: binding; set-up: recombinant HMGCS1 (pET60b-HMGCS1-TEV-6His)
T1 sequence (Q01581 1-520): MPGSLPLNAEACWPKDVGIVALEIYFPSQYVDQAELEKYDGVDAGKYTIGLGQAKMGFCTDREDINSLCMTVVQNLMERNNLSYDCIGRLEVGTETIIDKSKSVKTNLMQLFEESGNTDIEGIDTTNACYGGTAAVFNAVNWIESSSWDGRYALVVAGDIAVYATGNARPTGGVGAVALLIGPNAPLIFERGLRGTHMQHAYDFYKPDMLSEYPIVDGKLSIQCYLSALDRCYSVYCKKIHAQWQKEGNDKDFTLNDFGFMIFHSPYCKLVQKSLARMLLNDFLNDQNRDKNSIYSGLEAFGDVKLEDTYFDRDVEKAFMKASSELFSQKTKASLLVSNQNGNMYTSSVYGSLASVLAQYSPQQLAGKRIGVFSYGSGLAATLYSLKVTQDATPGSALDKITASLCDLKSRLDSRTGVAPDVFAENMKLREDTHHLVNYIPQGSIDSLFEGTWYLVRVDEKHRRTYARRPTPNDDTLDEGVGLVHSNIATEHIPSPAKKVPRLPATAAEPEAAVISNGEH

[2] = target: T1, 3-hydroxy-3-methylglutaryl-coenzyme A synthase 1 (HMGCS1); assay: competitive affinity purification TMT mass spectrometry and immunoblot in HEK293T cells; assay type: cell-based; set-up: endogenous HMGCS1 in HEK293T cells

SMILES	Glu-C MS/MS of adduct on recombinant HMGCS1; dose-dependent competition with HG- [1]	competitive affinity purification TMT mass spectrometry and immunoblot in HEK293 [2]
CC(=C\C(=O)O)/C=C(\C)C[C@H](C)CCCC[C@H]1OC(=O)[C@@H]1CO [HG, Hymeglusin]	Mass spectrometry analysis of recombinant HMGCS1, after incubation with HG, further confirmed the modification of C129 by HG	
CC(=C\C(=O)NCCOCCOCCNC(=O)CCCC[C@@H]1SC[C@@H]2NC(=O)N[C@@H]21)/C=C(\C)C[C@H](C)CCCC[C@H]1OC(=O)[C@@H]1CO [HG-biotin, Hymeglusin-biotin]		An orthogonal immunoblotting assay confirmed the strong enrichment of HMGCS1 by HG-biotin in DMSO pre-treated cells
